Structures can show the parent of a compound that is named as a salt.
What was measured:
[1] = molecular target: T1, human B1R receptor (Homo sapiens, UniProt P46663); assay: Functional study on the bradykinin receptor 1 (B1R), FLIPR Ca2+ assay, hB1R cells; format: cell-based; conditions: agonist Lys-Des-Arg9-bradykinin 0.5 nM, % inhibition compared with the maximum achievable inhibition; for inhibition at 10 µM: CHO-K1, test substance 10 μM, read-out: B1R Antagonism, human [10 μM] % Inhibition; for B1R Antagonism, human [10 μM] % Inhibition: test substance 10 μM, hB1R CHO K1 cells
T1 construct: host or cells: CHO K1 cells (Chinese hamster ovary), stably transfected
T1 sequence (P46663 1-353): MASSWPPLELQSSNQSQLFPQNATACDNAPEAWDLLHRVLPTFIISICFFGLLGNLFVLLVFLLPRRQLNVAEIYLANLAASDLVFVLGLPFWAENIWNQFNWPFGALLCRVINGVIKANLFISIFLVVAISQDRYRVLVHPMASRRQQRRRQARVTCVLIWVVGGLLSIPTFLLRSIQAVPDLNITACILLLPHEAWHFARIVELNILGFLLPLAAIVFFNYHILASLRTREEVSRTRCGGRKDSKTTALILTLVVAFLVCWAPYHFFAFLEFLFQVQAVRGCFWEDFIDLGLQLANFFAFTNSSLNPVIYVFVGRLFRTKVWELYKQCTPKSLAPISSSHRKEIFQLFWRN
Method in brief: (§1)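 FLIPR Ca2+ assay in recombinant CHO K1 cells (human or rat B1R), Fluo-4 dye; 10 μM compound, 10 min, then EC-level agonist per species (0.5 nM Lys-Des-Arg9-BK human / 100 nM Des-Arg9-BK rat). Output: % inhibition vs maximum.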

[2] = molecular target: T2, B1R receptor of the rat (Rattus norvegicus, UniProt P97583); assay: Functional study on the bradykinin receptor 1 (B1R), FLIPR Ca2+ assay, rB1R cells; format: cell-based; conditions: agonist Des-Arg9-bradykinin 100 nM, % inhibition compared with the maximum achievable inhibition; for inhibition at 10 µM: CHO-K1, test substance 10 μM, read-out: B1R Antagonism, rat [10 μM] % Inhibition; for B1R Antagonism, rat [10 μM] % Inhibition: test substance 10 μM, rB1R CHO K1 cells
T2 construct: host or cells: CHO K1 cells (Chinese hamster ovary), stably transfected
T2 sequence (P97583 1-337): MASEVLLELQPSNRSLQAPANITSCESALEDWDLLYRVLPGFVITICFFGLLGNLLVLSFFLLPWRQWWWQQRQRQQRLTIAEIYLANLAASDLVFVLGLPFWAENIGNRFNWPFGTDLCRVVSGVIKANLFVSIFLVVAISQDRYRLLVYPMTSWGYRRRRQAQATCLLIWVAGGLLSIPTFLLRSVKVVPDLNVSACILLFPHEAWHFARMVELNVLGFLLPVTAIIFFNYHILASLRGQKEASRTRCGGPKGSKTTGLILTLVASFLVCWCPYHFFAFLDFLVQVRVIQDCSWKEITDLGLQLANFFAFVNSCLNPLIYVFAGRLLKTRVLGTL
Method in brief: as §1

SMILES | inhibition at 10 µM [1] [%] | inhibition at 10 µM [2] [%] | B1R Antagonism, human [10 μM] % Inhibition [1] [%] | B1R Antagonism, rat [10 μM] % Inhibition [2] [%]
CN(C)CCCN1CCN(C(=O)COCC2CCCN2S(=O)(=O)c2c(Cl)cc(C(F)(F)F)cc2Cl)CC1 (stereo not drawn) [Example 569, 2-((1-(2,6-dichloro-4-(trifluoromethyl)phenylsulfonyl)pyrrolidin-2-yl)methoxy)-1-(4-(3-(dimethylamino)propyl)piperazin-1-yl)ethanone] | 90 | 92.9 |  | 
O=C(COCC1CCCN1S(=O)(=O)c1c(Cl)cccc1Cl)N1CCN(Cc2ccc(Br)cc2)CC1 (stereo not drawn) [Example 358, 1-(4-(4-bromobenzyl)piperazin-1-yl)-2-((1-(2,6-dichlorophenylsulfonyl)pyrrolidin-2-yl)methoxy)ethanone] | 101 | 103 |  | 
CN1CCN(c2ccc(CNC(=O)COCC3CCCCN3S(=O)(=O)c3c(Cl)cc(Cl)cc3Cl)cc2)CC1 (stereo not drawn) [Example 13, N-[4-(4-methyl-piperazin-1-yl)-benzyl]-2-[1-(2,4,6-trichloro-phenylsulfonyl)-piperidin-2-ylmethoxy]-acetamide] | 97.7 | 113 |  | 
CC(C)c1cc(C(C)C)c(S(=O)(=O)N2CCCCC2COCC(=O)N2CCN(C3CCN(C)CC3)CC2)c(C(C)C)c1 (stereo not drawn) [Example 119, 1-(4-(1-methylpiperidin-4-yl)piperazin-1-yl)-2-((1-(2,4,6-triisopropylphenylsulfonyl)piperidin-2-yl)methoxy)ethanone] | 95.9 | 61.9 |  | 
O=C(COCC1CCCCN1S(=O)(=O)c1c(Cl)cccc1Cl)N1CCN(c2nc3ccccc3s2)CC1 (stereo not drawn) [Example 553, 1-(4-(benzo[d]thiazol-2-yl)piperazin-1-yl)-2-((1-(2,6-dichlorophenylsulfonyl)piperidin-2-yl)methoxy)ethanone] | 54.1 | 101 |  | 
COc1ccc(S(=O)(=O)N2CCCCC2COCC(=O)N2CCN(C3CCN(C)CC3)CC2)c2ccccc12 (stereo not drawn) [Example 174, 2-((1-(4-methoxynaphthalen-1-ylsulfonyl)piperidin-2-yl)methoxy)-1-(4-(1-methylpiperidin-4-yl)piperazin-1-yl)ethanone dihydrochloride] | 101 | 98 |  | 
O=C(COCC1CCCN1S(=O)(=O)c1c(Cl)cc(Cl)cc1Cl)N1CCC(N2CCCCC2)CC1 (stereo not drawn) [Example 298, 1-(1,4′-bipiperidin-1-yl)-2-((1-(2,4,6-trichlorophenylsulfonyl)pyrrolidin-2-yl)methoxy)ethanone] |  |  | 105.09 | 103.58
Cc1cccc(Cl)c1S(=O)(=O)N1CCC[C@@H]1COCC(=O)N1CCN(C2CCN(C)CC2)CC1 [Example 152, (R)-2-((1-(2-chloro-6-methylphenylsulfonyl)pyrrolidin-2-yl)methoxy)-1-(4-(1-methylpiperidin-4-yl)piperazin-1-yl)ethanone dihydrochloride] | 100 | 90.8 |  | 
COc1cc(C)c(S(=O)(=O)N2Cc3ccccc3C[C@H]2COCC(=O)N2CCC(CCN3CCCC3)CC2)c(C)c1 [Example 187, (S)-2-((2-(4-methoxy-2,6-dimethylphenylsulfonyl)-1,2,3,4-tetrahydroisoquinolin-3-yl)methoxy)-1-(4-(2-(pyrrolidin-1-yl)ethyl)piperidin-1-yl)ethanone] | 100 | 102 |  | 
COc1cc(C)c(S(=O)(=O)N2CCCCC2COCC(=O)N2CCN(Cc3nc(-c4ccccc4)[nH]c3Cl)CC2)c(C)c1 (stereo not drawn) [Example 197, 1-(4-((5-chloro-2-phenyl-1H-imidazol-4-yl)methyl)piperazin-1-yl)-2-((1-(4-methoxy-2,6-dimethylphenylsulfonyl)piperidin-2-yl)methoxy)ethanone] | 104 | 100 |  | 
O=C(COCC1CCCN1S(=O)(=O)c1ccc(Cl)c(Cl)c1)N1CCN(CCN2CCCCC2)CC1 (stereo not drawn) [Example 72, 2-((1-(3,4-dichlorophenylsulfonyl)pyrrolidin-2-yl)methoxy)-1-(4-(2-(piperidin-1-yl)-ethyl)piperazin-1-yl)ethanone] | 52.6 | 13.2 |  | 
Cc1cc(S(=O)(=O)N2CCCCC2COCC(=O)N2CCN(Cc3ccccc3)CC2)c(C)cc1Cl (stereo not drawn) [Example 568, 1-(4-benzylpiperazin-1-yl)-2-((1-(4-chloro-2,5-dimethylphenylsulfonyl)piperidin-2-yl)methoxy)ethanone] | 38.5 | 81.3 |  | 
COc1cc(C)c(S(=O)(=O)N2CCCCC2COCC(=O)N2CC[C@@H](N(C)C)C2)c(C)c1 (stereo partly drawn) [Example 363, 1-((R)-3-(dimethylamino)pyrrolidin-1-yl)-2-((1-(4-methoxy-2,6-dimethylphenylsulfonyl)piperidin-2-yl)methoxy)ethanone] | 90.7 | 101 |  | 
COc1ccc(S(=O)(=O)N2CCCCC2COCC(=O)Nc2ccc(N3CCOCC3)c3nonc23)cc1 (stereo not drawn) [Example 556, 2-((1-(4-methoxyphenylsulfonyl)piperidin-2-yl)methoxy)-N-(7-morpholinobenzo[c][1,2,5]oxadiazol-4-yl)acetamide] | 12.1 | 85.6 |  | 
Cc1cc(C)c(S(=O)(=O)N2CCCCC2COCC(=O)N2CCC(N3CCN(C)CC3)CC2)c(C)c1 (stereo not drawn) [Example 231, 2-((1-(mesitylsulfonyl)piperidin-2-yl)methoxy)-1-(4-(4-methylpiperazin-1-yl)piperidin-1-yl)ethanone] | 102 | 83.3 |  | 
COc1cc(C)c(S(=O)(=O)N2CCCCC2COCC(=O)NCCc2cnccn2)c(C)c1 (stereo not drawn) [Example 425, 2-((1-(4-methoxy-2,6-dimethylphenylsulfonyl)piperidin-2-yl)methoxy)-N-(2-(pyrazin-2-yl)ethyl)acetamide] | -0.97 | 98.8 |  | 
Cc1cc(C)nc(CC2CCCN2C(=O)COCC2CCCCN2S(=O)(=O)c2cccc3ccccc23)c1 (stereo not drawn) [Example 240, 1-(2-((4,6-dimethylpyridin-2-yl)methyl)pyrrolidin-1-yl)-2-((1-(naphthen-1-ylsulfonyl)piperidin-2-yl)methoxy)ethanone] |  |  | 78.48 | 97.3
COc1cc(C)c(S(=O)(=O)N2CCCCC2COCC(=O)N2CCN(Cc3ccc4nccnc4c3)CC2)c(C)c1 (stereo not drawn) [Example 166, 2-((1-(4-methoxy-2,6-dimethylphenylsulfonyl)piperidin-2-yl)methoxy)-1-(4-(quinoxalin-6-ylmethyl)piperazin-1-yl)ethanone] | 99.4 | 99.3 |  | 
COc1cc(C)c(S(=O)(=O)N2CCCCC2COCC(=O)NCCCN2CCN(Cc3ccccc3)CC2)c(C)c1 (stereo not drawn) [Example 411, N-(3-(4-benzylpiperazin-1-yl)propyl)-2-((1-(4-methoxy-2,6-dimethylphenylsulfonyl)piperidin-2-yl)methoxy)acetamide] | 101 | 100 |  | 
Cc1cc(C)c(S(=O)(=O)N2Cc3ccccc3CC2COCC(=O)NCc2ccc(CN3CCCC3)cc2)c(C)c1 (stereo not drawn) [Example 83, N-(4-pyrrolidin-1-ylmethyl-benzyl)-2-[2-(2,4,6-trimethyl-phenylsulfonyl)-1,2,3,4-tetrahydro-isoquinolin-3-ylmethoxy]-acetamide] | 43.9 | 30.8 |  | 
CN1CCN(C(=O)COCC2CCCCN2S(=O)(=O)c2c(Cl)cc(Cl)cc2Cl)CC1 (stereo not drawn) [Example 393, 1-(4-methylpiperazin-1-yl)-2-((1-(2,4,6-trichlorophenylsulfonyl)piperidin-2-yl)methoxy)ethanone] | 104 | 101 |  | 
O=C(COCC1Cc2ccccc2CN1S(=O)(=O)c1ccccc1)Nc1cccc(N2CCOCC2)c1 (stereo not drawn) [Example 264, N-(3-morpholinophenyl)-2-((2-(phenylsulfonyl)-1,2,3,4-tetrahydroisoquinolin-3-yl)methoxy)acetamide] | 103 | 31.7 |  | 
O=C(COCC1CCCN1S(=O)(=O)c1c(Cl)cccc1Cl)N1CCCCC1Cc1ccncc1 (stereo not drawn) [Example 453, 2-((1-(2,6-dichlorophenylsulfonyl)pyrrolidin-2-yl)methoxy)-1-(2-(pyridin-4-ylmethyl)piperidin-1-yl)ethanone] | 40.5 | 74.4 |  | 
COc1cc(C)c(S(=O)(=O)N2CCCCC2COCC(=O)Nc2cccc3cnccc23)c(C)c1 (stereo not drawn) [Example 258] |  |  | 75.25 | 99.75

Reference: patent US8435978B2, “Substituted sulfonamide compounds” (Gruenenthal GmbH, priority 2006, dated 2013)
